The source of these data is patent US20250326720A1, “CAREBASTINE SALT AND USE OF SAME” (priority 2022, published 2025).

Molecules are shown by their SMILES. Marks after values point to notes of the source that are not given here. Bounds are passed on as bounds.

One data set relates to KM mice. The following applies: both, KM, mouse, in vivo, 14 days. As for the experimental part:
All drugs were administered by intragastric administration, and the blank control group was administered with an equal volume of 0.5% CMC-Na solution. All animals were fasted for 12 hours before administration, but were allowed to drink water freely.
After administration, the mice were kept and observed for 14 days, and the toxic reactions (such as death) of the mice were observed and recorded every day. After the observation period, all surviving animals were dissected to observe whether there were obvious lesions in each organ.

The subject of data set [1] is histamine-induced shock in guinea pigs. In words: Histamine-induced shock test in guinea pigs. It is filed as in vivo. The following applies: gavage, equimolar to 1.00 mg/kg ebastine, histamine phosphate i.v. one hour after administration, n = 10. As to the method: One hour after administration, 0.125 wt. % histamine phosphate saline solution was injected intravenously into lateral sides of hind paws of the guinea pigs at 2 ml/kg. After the injection was completed within 10 s, a stopwatch was used immediately to observe the latency period for the guinea pigs to develop accelerated respiration and collapse with convulsions.

Data set [2] is classed as in vivo. The following applies: SD rats. As for the experimental part: Twenty-four SD rats weighing about 180 g to 200 g were randomly divided into 4 groups, with 6 rats in each group, half of which were male and half were female. The rats were given the corresponding drugs by intragastric administration.
The rats were fasted for 12 hours before administration, but were allowed to drink water freely.
Preparation of test substances: The preparation of test substances was carried out on the workbench in the related art in the preparation room.
Blank blood was collected before administration, and blood was collected at predetermined time points of 0.25 h, 0.5 h, 0.75 h, 1 h, 2 h, 3 h, 4 h, 6 h, 8 h, 10 h, and 24 h after administration. About 0.5 mL of blood was collected and placed in an EDTA-K2 tube, and the plasma was separated by centrifugation and stored at −80° C. The prototype and the metabolite, namely, carebastine, in a plasma sample were detected and analyzed by liquid chromatography-mass spectrometry (LC-MS/MS), and pharmacokinetic parameters were calculated.

`CC(C)(C)c1ccc(C(=O)CCCN2CCC(OC(c3ccccc3)c3ccccc3)CC2)cc1` [Comparative Example 1, ebastine]: the MDT in the data set on KM mice was more than 2500 mg/kg. In data set [1], the Mortality rate was 0/10; the “Time of convulsion and collapse” value is recorded as 349* s. Also, the “gender differences (AUC and Cmax, female vs male rats)” value in data set [2] (three female vs three male per group) was “showed gender differences”. In addition, in data set [2] (prototype (ebastine) in plasma, single intragastric 10 mg/kg), the “content of the prototype” value is recorded as “lower than 3 ng/mL”.
